Results: paper PMC7998669, “7-(2-Anilinopyrimidin-4-yl)-1-benzazepin-2-ones Designed by a “Cut and Glue” Strategy Are Dual Aurora A/VEGF-R Kinase Inhibitors” (Molecules, 2021)

Legend:
Assay in all cases: NCI cancer cell line screen (sulforhodamin B)
Type in all cases: cell-based
[1] = test system: BT-549; conditions: Homo sapiens; BT-549, Breast; 48 h; read-out: log10 GI50 (converted)
Experimental: (§1) The new dual Aurora A/VEGF-R inhibitors 2e and 2n were selected by the National Cancer Institute for screening in its broad cancer cell line panel. The NCI in vitro assay is performed by incubation of cells with test compounds for 48 h and subsequent cell fixation with trichloroacetic acid. The pink dye sulforhodamin B is added, which binds to the proteins of the fixed cells. After washing and solubilizing the bound stain, the optical density is measured spectrophotometrically to determine the relative proliferation of treated and untreated cells.
(§2) Simultaneous inhibition of the Aurora A kinase and the VEGF-R2/3 receptor kinases may represent an interesting dual activity for the treatment of cancer. The National Cancer Institute selected the compounds 2e and 2n as representatives with particularly high inhibitory activity on the above kinases for testing in the IVCLS (in vitro cell line screening). In this screening, compounds are tested for antiproliferative activity on about 60 in vitro cultivated tumor cell lines. Based on this very broad screening on cell lines from nine tumor entities the general antiproliferative potency of compounds is determined. In addition, the bioinformatic tool COMPARE allowed one to draw conclusions on the molecular target of the compounds from the activity patterns on the different cell lines. Similar molecular mechanisms of action of two compounds are assumed if a Pearson correlation coefficient (PCC) of > 0.6 is calculated by COMPARE [52, 53]. […] The selectivity profile of the two compounds is not very pronounced given the overall very similar proliferation inhibition values across all cell lines. A COMPARE analysis determined a PCC = 0.61 for the patterns of test compounds 2e and 2n, which is consistent with an analogous mechanism of action. However, whether this mechanism is actually based on the inhibition of the inhibited Aurora kinases and VEGF receptor kinases cannot be deduced from these profiles.

[2] = test system: NCI-H322M; conditions: Homo sapiens, NSCL, 48 h, read-out: log10 GI50 (converted)
Experimental: as §1, §2

[3] = test system: DU-145; conditions: Homo sapiens; DU-145, Prostate; 48 h; read-out: log10 GI50 (converted)
Experimental: as §1, §2

[4] = test system: TK-10; conditions: Homo sapiens; TK-10, Renal; 48 h; read-out: log10 GI50 (converted)
Experimental: as §1, §2

[5] = test system: HCT-15; conditions: Homo sapiens; HCT-15, Colon; 48 h; read-out: log10 GI50 (converted)
Experimental: as §1, §2

[6] = test system: SK-MEL-5; conditions: Homo sapiens; SK-MEL-5, Melanoma; 48 h; read-out: log10 GI50 (converted)
Experimental: as §1, §2

[7] = test system: UACC-257; conditions: Homo sapiens; UACC-257, Melanoma; 48 h; read-out: log10 GI50 (converted)
Experimental: as §1, §2

[8] = test system: HOP-92; conditions: Homo sapiens; HOP-92, NSCL; 48 h; read-out: log10 GI50 (converted)
Experimental: as §1, §2

[9] = test system: MALME-3M; conditions: Homo sapiens, Melanoma, 48 h, read-out: log10 GI50 (converted)
Experimental: as §1, §2

[10] = test system: ACHN; conditions: Homo sapiens, Renal, 48 h, read-out: log10 GI50 (converted)
Experimental: as §1, §2

[11] = test system: HS 578T; conditions: Homo sapiens, Breast, 48 h, read-out: log10 GI50 (converted)
Experimental: as §1, §2

[12] = test system: U0-31; conditions: Homo sapiens; U0-31, Renal; 48 h; read-out: log10 GI50 (converted)
Experimental: as §1, §2

[13] = test system: NCI-H23; conditions: Homo sapiens; NCI-H23, NSCL; 48 h; read-out: log10 GI50 (converted)
Experimental: as §1, §2

[14] = test system: MCF7; conditions: Homo sapiens; MCF7, Breast; 48 h; read-out: log10 GI50 (converted)
Experimental: as §1, §2

[15] = test system: T-47D; conditions: Homo sapiens, T47D, Breast, 48 h, read-out: log10 GI50 (converted)
Experimental: as §1, §2

[16] = test system: MDA-MB-435; conditions: Homo sapiens; MDA-MB-435, Melanoma; 48 h; read-out: log10 GI50 (converted)
Experimental: as §1, §2

[17] = test system: SNB-75; conditions: Homo sapiens; SNB-75, CNS; 48 h; read-out: log10 GI50 (converted)
Experimental: as §1, §2

[18] = test system: 786-0; conditions: Homo sapiens; 786-0, Renal; 48 h; read-out: log10 GI50 (converted)
Experimental: as §1, §2

[19] = test system: SR; conditions: Homo sapiens, Leukemia, 48 h, read-out: log10 GI50 (converted)
Experimental: as §1, §2

[20] = test system: A498; conditions: Homo sapiens; A498, Renal; 48 h; read-out: log10 GI50 (converted)
Experimental: as §1, §2

[21] = test system: HOP-62; conditions: Homo sapiens; HOP-62, NSCL; 48 h; read-out: log10 GI50 (converted)
Experimental: as §1, §2

[22] = test system: RXF 393; conditions: Homo sapiens; RXF 393, Renal; 48 h; read-out: log10 GI50 (converted)
Experimental: as §1, §2

[23] = test system: RPMl-8226; conditions: Homo sapiens; RPMl-8226, Leukemia; 48 h; read-out: log10 GI50 (converted)
Experimental: as §1, §2

[24] = test system: MDA-MB-231/ATCC; conditions: Homo sapiens, Breast, 48 h, read-out: log10 GI50 (converted)
Experimental: as §1, §2

[25] = test system: HCT-116; conditions: Homo sapiens; HCT-116, Colon; 48 h; read-out: log10 GI50 (converted)
Experimental: as §1, §2

[26] = test system: UACC-62; conditions: Homo sapiens; UACC-62, Melanoma; 48 h; read-out: log10 GI50 (converted)
Experimental: as §1, §2

[27] = test system: CAKl-1; conditions: Homo sapiens; CAKl-1, Renal; 48 h; read-out: log10 GI50 (converted)
Experimental: as §1, §2

[28] = test system: LOX IMVI; conditions: Homo sapiens, Melanoma, 48 h, read-out: log10 GI50 (converted)
Experimental: as §1, §2

Compound: O=C1CCCc2cc(-c3ccnc(Nc4ccc(O)cc4)n3)ccc2N1 [Compound 2e, 7-[2-(4-Hydroxyanilino)pyrimidin-4-yl]-1,3,4,5-tetrahydro-2H-1-benzazepin-2-one]
- GI50 [1]: 5.13 µM
- GI50 [2]: 4.07 µM
- GI50 [3]: 3.39 µM
- GI50 [4]: 3.8 µM
- GI50 [5]: 3.24 µM
- GI50 [6]: 3.09 µM
- GI50 [7]: 4.17 µM
- GI50 [8]: 6.61 µM
- GI50 [9]: 2.19 µM
- GI50 [10]: 2.57 µM
- GI50 [11]: 4.9 µM
- GI50 [12]: 1.74 µM
- GI50 [13]: > 100 µM
- GI50 [14]: 4.27 µM
- GI50 [15]: 1.55 µM
- GI50 [16]: 3.63 µM
- GI50 [17]: 3.39 µM
- GI50 [18]: 4.37 µM
- GI50 [19]: 1.32 µM
- GI50 [20]: 4.79 µM
- GI50 [21]: 11 µM
- GI50 [22]: 1.86 µM
- GI50 [23]: 3.24 µM
- GI50 [24]: > 100 µM
- GI50 [25]: 3.63 µM
- GI50 [26]: 9.12 µM
- GI50 [27]: 4.17 µM
- GI50 [28]: 3.39 µM

Compound: COc1ccc(Nc2nccc(-c3ccc4c(c3)CCCC(=O)N4)n2)cc1O [Compound 2n, 7-[2-(3-Hydroxy-4-methoxyanilino)pyrimidin-4-yl]-1,3,4,5-tetrahydro-2H-1-benzazepin-2-one]
- GI50 [1]: 5.62 µM
- GI50 [2]: 30.9 µM
- GI50 [3]: 5.01 µM
- GI50 [4]: 23.4 µM
- GI50 [5]: 4.57 µM
- GI50 [6]: 10 µM
- GI50 [7]: 14.8 µM
- GI50 [8]: 0.214 µM
- GI50 [9]: > 100 µM
- GI50 [10]: 4.17 µM
- GI50 [11]: 2.14 µM
- GI50 [12]: 3.02 µM
- GI50 [13]: 11.7 µM
- GI50 [14]: 5.13 µM
- GI50 [15]: 4.07 µM
- GI50 [16]: 5.25 µM
- GI50 [17]: 2.19 µM
- GI50 [18]: 4.57 µM
- GI50 [19]: 3.16 µM
- GI50 [20]: 37.2 µM
- GI50 [21]: 8.13 µM
- GI50 [22]: 2.69 µM
- GI50 [23]: 5.25 µM
- GI50 [24]: > 100 µM
- GI50 [25]: 3.8 µM
- GI50 [26]: 9.33 µM
- GI50 [27]: 5.62 µM
- GI50 [28]: 5.5 µM
